Data set [1] deals with H3K9Me2. As to conditions: repeated cocaine; cited from earlier work.
The conditions of data set [2]: i.p. administration, rodents; cited from earlier work.
Data set [3] has as its system G9a. In words: Western blot of G9a in brain regions, chronic cocaine ± 5-MeO-DMT. The format is in vivo, Male Wistar rats. The text has this:
(§1) Male Wistar rats aged 7 weeks were acclimatized to the facility for 1 week prior to the beginning of the study. […] Animals were euthanized 23- or 119-hours following vehicle or 5-MeO-DMT administration.
(§2) Following euthanasia brain regions of interest were isolated. Briefly, the olfactory bulbs were removed before the brain was placed in a rat brain matrix (FIG. 2A). Sterile blades were inserted at positions 2 and 3 (FIG. 2B) to extract a coronal slice containing the Bregma+˜0.2-+˜2.2 coordinates (FIG. 2C). From this tissue slice a blunted 12 G needle was used to punch dissect the NAc and dorsal striatum (DS) (FIG. 2D-2E) identified using the rat brain atlas (Panxinos and Watson 2nd edition). The PFC, hippocampus (Hip) and amygdala (Amyg) were then blunt dissected (FIG. 3A-3D). All regions were frozen in liquid nitrogen and stored at −80° C. until processed.
(§3) These treatment groups were used for the molecular assessment of addiction-linked markers.
(§4) Determination of protein concentration—a bicinchoninic acid assay (BCA, ThermoFisher) was conducted to determine the total protein concentration in tissue lysates following manufacturer's instructions. Briefly, bovine serum albumin (BSA) standards were prepared in a serial dilution (0-2.0 mg protein/ml) and 200 μl working reagent (50:1, reagent A: reagent B) was added to each of the standards and samples in a 96 well plate (Greiner). For tissue lysates a 1:10 dilution was performed with cell lysis buffer to ensure absorbance values lay within the working range established by the standards. All samples and standards were added in duplicate. The plate was covered and incubated for 30 mins at 37° C. before absorbance was read at 562 nm on a plate reader (SpectraMax M3). The absorbance values were used to form a standard curve of known protein concentrations and protein concentration of samples were derived using the equation of the line. All samples were standardized to the lowest protein concentration using distilled H20 (dH2O).
(§5) SDS-PAGE and Western Blotting—Following equalisation of protein concentrations, 6× sample loading buffer (15% SDS, 15% […], 50% glycerol, 0.01% bromophenol blue, […]) was added to each sample using a dilution factor of 1:5 of the total volumes before boiling at 100° C. for 5 mins. Samples were stored at −20° C. until use. One dimensional sodium-dodecyl-sulphate polyacrylamide gel electrophoresis (SDS-PAGE) was used for protein separation based on molecular weight. The percentage of acrylamide in the resolving or stacking gel was determined by the molecular weight of the protein of interest. In this instance all gels consisted of a 5% stacking gel and a 10% resolving gel with the exception of mGluR5, G9a (8%) and H3K9Me2 (12%). 20 μg of protein was loaded and resolved using SDS-PAGE. Gel electrophoresis was conducted at 80V while the protein was in the stacking gel, once it migrated to the resolving gel the voltage was increased to 120V and ran for 90 mins. Samples were transferred to a 0.45 μm polyvinylidene difluoride (PVDF) membrane (Analab) for 1 hour at 100V and blocked in 5% milk blocking solution made in tris-buffered saline containing tween®-20 (TBS-T, Sigma) for 90 mins. Primary antibodies (FIG. 5) were diluted in 5% BSA in TBS-T and incubated with membranes overnight at 4° C. or for 2 hours at room temperature. After incubation with primary antibodies the membranes were washed in TBS-T for 4×10 minutes before incubation with 1:2000 anti-rabbit and 1:2000 anti-mouse Alexa Fluro® conjugated secondary antibodies (Invitrogen) in 2% milk for 1 hour at room temperature. Membranes were washed in TBS-T for 4×10 minutes and in TBS for 1×10-minute wash. Proteins were visualized using Odyssey® infrared imaging system. Protein expression was quantified using Image Studio Lite (Version 5.2) and expression intensities were normalized to a house keeping protein, α-Tubulin or β-actin.
A general note: Immunoblotting shows a protein as a band on a membrane.

In data set [4] the test system is FosB. In words: Western blot of FosB in brain regions, chronic cocaine ± 5-MeO-DMT. The class given is in vivo, Male Wistar rats.
Excerpt: as §1, §2, §3, §4, §5

Structures are written as SMILES.

In the case of `COC(=O)[C@H]1[C@@H](OC(=O)c2ccccc2)C[C@@H]2CC[C@H]1N2C.Cl` [cocaine, cocaine hydrochloride, reference compound], the “decrease in H3K9Me2 expression” value in data set [1] was 15%.
`COc1ccc2[nH]cc(CCN(C)C)c2c1` [5-MeO-DMT, 5-methoxy-N,N-dimethyltryptamine]: the “terminal half-life (t½)” value in data set [2] was 12 to 19 min. The “time of maximal drug concentration” value in data set [2] was 5 to 7 min. Also, the G9a expression entry was “significant decrease in G9a expression” in data set [3] (PFC, 24 h, cocaine+20 mg/kg 5-MeO-DMT relative to saline+vehicle); “increased G9a expression levels” in data set [3] (dorsal striatum, 24 h, 20 mg/kg 5-MeO-DMT alone); “significantly reduced G9a levels relative to the cocaine+vehicle group” in data set [3] (dorsal striatum, 24 h, cocaine + either concentration of 5-MeO-DMT (10 or 20 mg/kg)); “remained significantly elevated” in data set [3] (dorsal striatum, 120 h, 20 mg/kg 5-MeO-DMT alone); “no change in enzyme expression” in data set [3] (hippocampus, 5-MeO-DMT alone); “normalised the cocaine-induced decrease in G9a” in data set [3] (hippocampus, 24 h, cocaine+20 mg/kg 5-MeO-DMT). The FosB expression result in data set [4] (PFC, 24 h and 120 h, any of the treatments) was “unchanged by any of the treatments”; in data set [4] (amygdala, 24 h, any treatment) it was “no change in FosB levels”; in data set [4] (amygdala, 120 h, cocaine x 5-MeO-DMT interaction p=0.0353), “no post hoc differences between treatment groups”; in data set [4] (dorsal striatum, 24 h, 5-MeO-DMT alone) it was “does not regulate the expression”; in data set [4] (dorsal striatum, 120 h, irrespective of the treatment group), “no change in expression levels”; in data set [4] (nucleus accumbens, 24 h, cocaine+10 mg/kg 5-MeO-DMT (1 h post last cocaine)), “increase FosB expression”. Moreover, the FosB expression result in data set [4] (nucleus accumbens, 24 h, cocaine+20 mg/kg 5-MeO-DMT (1 h post last cocaine)) is listed as “no significant difference in FosB expression levels relative to the saline+vehicle control group”; in data set [4] (nucleus accumbens, 24 h, saline+10 mg/kg 5-MeO-DMT single dose) it was “not 10 mg/kg increasing expression”; in data set [4] (nucleus accumbens, 24 h, saline+20 mg/kg 5-MeO-DMT single dose), “increasing expression”; in data set [4] (nucleus accumbens, 120 h, 5-MeO-DMT alone), “does not persist to 120 hours”.

Source of the values: patent US20240299353A1, “COMPOSITIONS AND METHODS FOR TREATING […] 5-MEO-DMT” (Alvarius Pharmaceuticals Ltd., priority 2021, published 2024).
